Measurements reported in PubChem BioAssay (NCI).
“And” between values parts separate entries of the source, which are not always exact repeats. Identical values can stand only once.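 Protocol summary: plate cells (96-well), add compound at 5 concentrations, incubate 48 h, interpolate endpoints linearly. The concentration for 50% growth inhibition is given as GI50. TGI: total growth inhibition.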

Columns and labels:
Assay in all cases: growth of human tumour cells (NCI), 48 h
[1] = system: HOP-62 NSCLC
[2] = system: SK-MEL-28 melanoma
[3] = system: MDA-N
[4] = system: HCC-2998 colon
[5] = system: MDA-MB-435
[6] = system: OVCAR-8 ovarian
[7] = system: SK-MEL-2 melanoma
[8] = system: SR leukemia
[9] = system: OVCAR-3 ovarian
[10] = system: LOX IMVI melanoma
[11] = system: A498 renal

SMILES	TGI [1]	TGI [2]	TGI [3]	TGI [4] [µM]	TGI [5]	TGI [6]	TGI [7] [µM]	TGI [8]	TGI [9]	TGI [10] [µM]	TGI [11]	GI50 [1]	GI50 [6]	GI50 [11]
NC(CCC(=O)NC(CSC(=O)N(O)c1ccc(Cl)cc1)C(=O)NCC(=O)O)C(=O)O (stereo unspecified)	> 0.5 µM	> 0.5 µM	> 0.5 µM	> 0.5	> 0.5 µM	> 0.5 µM	> 0.5	> 0.5 µM	> 0.5 µM	–	–	–	–	–
CC(=O)N1N=C(c2ccccc2Nc2ccccc2C2=NN(C(C)=O)C(c3ccccc3)O2)OC1c1ccccc1 (stereo unspecified)	> 100 µM	> 100 µM	> 100 µM	> 100	> 100 µM	> 100 µM	> 100	> 100 µM	> 100 µM	> 100	–	–	–	–
O=C(Nc1ccc(Cl)cc1Cl)c1cc2nc3ccccc3c(=O)n2c2ccccc12	> 10 µM	> 10 µM	> 10 µM	> 10	> 10 µM	> 10 µM	> 10	–	> 10 µM	> 10	> 10 µM	–	–	–
O=C1CC(NC2CC(=O)c3c(Br)sc(Br)c32)c2c(Br)sc(Br)c21 (stereo unspecified)	12.2 µM	> 55.4 µM	5.82 µM	30.8	11.2 µM	10.3 µM	14.5	–	> 100 µM	4.68	32.6 µM	–	–	–
O=C(Nc1ccccc1)c1cc2c(cc1Cl)SC(NNCCO)=NS2(=O)=O	> 100 µM	> 100 µM	–	> 100	> 100 µM	> 100 µM	> 100	> 100 µM	–	> 100	> 100 µM	–	–	–
O=C(O)c1cccc(S(=O)(=O)NN2C(=O)CSC2c2ccccc2Cl)c1 (stereo unspecified)	> 100 µM	> 100 µM	> 100 µM	> 100	> 100 µM	> 100 µM	> 100	> 100 µM	> 100 µM	> 100	–	–	–	–
Cc1ccccc1C(=O)NC(O)(C(F)(F)F)C(F)(F)F	> 100 µM	> 100 µM	> 100 µM	> 100	> 100 µM	> 100 µM	> 100	–	> 100 µM	> 100	> 100 µM	–	–	–
Clc1cc2nnn(C3CCCCO3)c2cc1Cl (stereo unspecified)	> 100 µM	–	> 100 µM	> 100	> 100 µM	> 100 µM	> 100	> 100 µM	> 100 µM	–	> 100 µM	–	–	–
N#Cc1c(N)nc2c(N=Nc3ccccc3)c(N)nn2c1Nc1ccccc1	39.1 µM	24.2 µM	38.5 µM	–	39.6 µM	14.2 µM	48.2	6.15 µM	35.1 µM	10.5	59.1 µM	–	–	–
c1csc(-c2cscc2-c2cccs2)c1	93.8 µM	> 100 µM	–	82.6	> 100 µM	> 100 µM	–	> 100 µM	47.3 µM	> 100	> 100 µM	–	–	–
C=C(C)C1Cc2c(cc(OC)c3c(=O)c4ccccc4n(C)c23)O1 (stereo unspecified)	> 100 µM	> 100 µM	–	> 100	–	> 100 µM	> 100	> 100 µM	> 100 µM	> 100	> 100 µM	–	–	–
COc1cc(CC(C)N[C@@H](C)c2ccccc2)cc(OC)c1 (stereo partly specified)	24.2 µM and > 100 µM	11.9 µM and > 100 µM	16.3 µM and > 100 µM	–	19.6 µM and > 100 µM	25.7 µM and > 100 µM	> 100	15.2 µM and > 100 µM	21.1 µM and > 100 µM	–	21 µM and > 100 µM	11.2 µM and > 100 µM	11.8 µM and > 100 µM	7.9 µM and 41.8 µM
OCCSCc1cc(Cl)cc(Cl)c1O	> 100 µM	> 100 µM	> 100 µM	> 100	> 100 µM	> 100 µM	–	–	> 100 µM	> 100	> 100 µM	–	–	–
c1ccc(CNCCCNCCCCNCCCNCc2ccccc2)cc1	17.1 µM	26.7 µM	4.13 µM	15.2	8.91 µM	27 µM	31.4	25.6 µM	28.3 µM	14.2	–	–	–	–
O=C1NC2(NC(=O)C1=O)Nc1ccccc1S2	> 100 µM	> 100 µM	–	> 100	–	> 100 µM	> 100	61.9 µM	> 100 µM	37.8	> 100 µM	–	–	–
COC(=O)c1ccc(-n2c(C)nc(=O)c(-c3ccccc3)c2C)cc1	> 100 µM	> 100 µM	–	> 100	> 100 µM	> 100 µM	> 100	> 100 µM	> 100 µM	> 100	> 100 µM	–	–	–
O=C1NC(=O)/C(=C/c2ccc(S(=O)(=O)N/N=C/c3ccccc3)cc2)N1	> 100 µM	> 100 µM	> 100 µM	> 100	> 100 µM	> 100 µM	> 100	–	> 100 µM	> 100	> 100 µM	–	–	–
CC(C)(C)OC(=O)N1CCCC1C(=O)NCCNc1ccc(NCCNC(=O)C2CCCN2C(=O)OC(C)(C)C)c2c1C(=O)c1ccccc1C2=O (stereo unspecified)	33.2 µM	35.6 µM	–	25.7	39.8 µM	21 µM	38.5	> 100 µM	27.1 µM	26.3	–	–	–	–
O=C1C=Cc2c1csc2Br	> 100 µM	> 100 µM	> 100 µM	–	> 100 µM	> 100 µM	> 100	22.7 µM	> 100 µM	60.2	–	–	–	–
COc1ccc2[nH]c3c(C)c4ccnc(NCCCN(C)CCCN)c4c(C)c3c2c1	0.385 µM	1.61 µM	0.496 µM	0.376	0.401 µM	0.376 µM	0.809	> 100 µM	1.54 µM	–	–	–	–	–
Nc1cccc(/C=C/CN2CCN(CCOC(c3ccccc3)c3ccccc3)CC2)c1	26.9 µM	27.1 µM	–	11.9	28.1 µM	30.1 µM	33.6	17.4 µM	29.1 µM	28.9	32.5 µM	–	–	–
Cc1ccc(N(C)S(=O)(=O)c2ccccc2)cc1	> 100 µM	> 100 µM	> 100 µM	> 100	> 100 µM	> 100 µM	> 100	> 100 µM	> 100 µM	> 100	–	–	–	–
C[C@]12CC[C@H]3[C@@H](CC=C4C[C@@H](O)CC[C@@]43C)[C@@H]1C[C@H](N1CCOCC1)[C@@H]2O	> 100 µM	> 100 µM	> 100 µM	> 100	> 100 µM	> 100 µM	> 100	–	> 100 µM	> 100	> 100 µM	–	–	–

SMILES	TGI [1]	TGI [2]	TGI [3]	TGI [4] [µM]	TGI [5]	TGI [6]	TGI [7] [µM]	TGI [8]	TGI [9]	TGI [10] [µM]	TGI [11]	GI50 [1]	GI50 [6]	GI50 [11]
Cc1ccc(S(=O)(=O)N/N=C2/C3C(CC2(C)C)C2(C)CCCC3(C)C2O)cc1 (stereo unspecified)	> 100 µM	40.4 µM	37.9 µM	–	–	> 100 µM	45.8	> 100 µM	> 100 µM	27.4	–	–	–	–
CC(=O)C1=C(C)N(c2ccc(C)cc2)C2(O)C=CC(=O)C3=C(O)c4ccccc4C(=O)C312 (stereo unspecified)	> 100 µM	34.5 µM	–	42.2	–	64.6 µM	30.3	> 100 µM	16.1 µM	> 100	30.8 µM	–	–	–
CCCC1=NC(C(F)(F)F)(C(F)(F)F)N=C(N2CCOCC2)O1	> 100 µM	> 100 µM	–	> 100	> 100 µM	> 100 µM	> 100	> 100 µM	> 100 µM	> 100	–	–	–	–
Cc1ccc(S(=O)(=O)Nn2c(C)cc3ccc(S(=O)(=O)Nc4ccccc4[N+](=O)[O-])cc3c2=O)cc1	> 100 µM	> 100 µM	> 100 µM	> 100	> 100 µM	> 100 µM	> 100	> 100 µM	> 100 µM	> 100	–	–	–	–
CCCC(=O)n1[nH]c(=O)n(C(C)(C)C)c1=O	> 100 µM	> 100 µM	> 100 µM	> 100	> 100 µM	> 100 µM	> 100	> 100 µM	> 100 µM	> 100	–	–	–	–
Cc1ccc(S(=O)(=O)C(C#N)c2nc3ccccc3nc2N2CCOCC2)cc1 (stereo unspecified)	44.6 µM	51.9 µM	–	28.5	–	–	88.6	> 100 µM	91.6 µM	57.3	> 100 µM	–	–	–
O=NN(CCCl)C(=O)Nc1ccc(Cl)c(Cl)c1	> 100 µM	> 100 µM	–	> 100	–	> 100 µM	> 100	–	> 100 µM	> 100	> 100 µM	–	–	–
Nc1ncnc2c1ccn2CC=C(CO)CO	> 100 µM	> 100 µM	> 100 µM	> 100	> 100 µM	> 100 µM	> 100	–	> 100 µM	> 100	> 100 µM	–	–	–
Oc1ccc(NCc2cc(O)ccc2O)cc1	35.7 µM	45.7 µM	11.1 µM	30.8	32 µM	> 100 µM	36.3	–	32 µM	38	60.1 µM	–	–	–
CC(=O)O[C@@H]1[C@@H](C)[C@]2(CC(c3ccoc3)OC2O)C2CCC3O[C@]3(C)[C@]2(C)[C@@H]1OC(C)=O (stereo partly specified)	–	81.4 µM	> 100 µM	–	> 100 µM	> 100 µM	> 100	58 µM	> 100 µM	44.1	> 100 µM	–	–	–
c1csc(-c2sc(-c3ccsc3)cc2Cc2ccsc2)c1	> 10 µM	> 10 µM	> 10 µM	> 10	> 10 µM	> 10 µM	–	> 10 µM	–	> 10	–	–	–	–
O=C(/C=C/c1cc(F)ccc1F)OCCc1ccccc1	> 100 µM	> 100 µM	> 100 µM	> 100	> 100 µM	> 100 µM	> 100	> 100 µM	–	–	> 100 µM	–	–	–
COC(=N)c1ncn(Cc2ccccc2)c1N	> 100 µM	> 100 µM	> 100 µM	> 100	> 100 µM	> 100 µM	> 100	–	> 100 µM	> 100	> 100 µM	–	–	–
C=CC(Br)(CBr)CCC(Br)C(C)(C)Br (stereo unspecified)	36.1 µM	29.8 µM	–	–	–	30.1 µM	29.7	21.5 µM	–	25.5	–	–	–	–
CCOC(=O)c1ncn2c1[nH]c(=O)c1ccccc12	–	> 100 µM	–	–	–	> 100 µM	> 100	> 100 µM	> 100 µM	> 100	–	–	–	–
COc1ccc(N2C(=O)C(C#N)=C(SC)C(C#N)C2=O)cc1 (stereo unspecified)	> 100 µM	–	> 100 µM	> 100	> 100 µM	> 100 µM	> 100	–	–	> 100	> 100 µM	–	–	–
N#Cc1nc(-c2ccccc2O)oc1N	> 100 µM	> 100 µM	> 100 µM	–	> 100 µM	> 100 µM	> 100	–	–	> 100	> 100 µM	–	–	–
Cc1ccc([S+](c2ccccc2)c2cc(C)ccc2C)cc1 (stereo unspecified)	90.8 µM	–	–	28.5	–	> 100 µM	–	> 100 µM	> 100 µM	> 100	32.1 µM	–	–	–
COc1ccc(C(=O)/C=C/c2ccc(OCC#N)cc2)cc1OC	36.4 µM	29.5 µM	–	33.3	44.7 µM	> 100 µM	–	61.2 µM	49.1 µM	–	–	–	–	–
c1ccc(N=C2C(=Nc3ccccc3)N(C3CCCCC3)C(=NC3CCCCC3)N2c2ccccc2)cc1	> 100 µM	> 100 µM	> 100 µM	> 100	–	> 100 µM	> 100	> 100 µM	–	–	> 100 µM	–	–	–
c1ccc2c(c1)ncn2CCn1ccnc1	> 100 µM	> 100 µM	–	> 100	> 100 µM	> 100 µM	> 100	–	> 100 µM	> 100	> 100 µM	–	–	–
CC(=O)N1N=C(c2ccc3ccccc3c2O)CC1c1ccc(Cl)cc1Cl (stereo unspecified)	> 100 µM	> 100 µM	> 100 µM	> 100	> 100 µM	> 100 µM	> 100	> 100 µM	> 100 µM	–	> 100 µM	–	–	–
c1ccc2c(c1)ccc1nc3ccccn3c12	> 100 µM	> 100 µM	–	> 100	> 100 µM	> 100 µM	–	> 100 µM	> 100 µM	–	–	–	–	–
